Measurements: patent publication US20120107323A1, “KINASE PROTEIN BINDING INHIBITORS” (University of Florida, priority 2009, published 2012)

Key:
[1] = test system: AsPC1 pancreatic cancer cells; test: Cell viability (MTT), AsPC1; type: cell-based; conditions: Homo sapiens; AsPC1, 72 hours; read-out: IC50 of INT2-31, cell viability
Experimental: (§1) Cell viability (MTT) and CFSE Proliferation assay: Cells were plated in 96-well plates and let adhere overnight. After cell treatment, cell viability was measured by 3-(4,5-dimethylthiazol-2-yl)-2,5-diphenyl tetrazolium bromide (MTT) assay (CellTiter 96® Aqueous, Promega, Madison, Wis.).
(§2) Cell viability and detachment assays: After cells were treated with siRNA transfection, cell viability was measured by 3-(4,5-dimethylthiazol2-yl)-2,5-diphenyl tetrazolium bromide (MTT) assay (CellTiter 96® AQueous, Promega, Madison, Wis.). Briefly, 20 μl of the tetrazolium compound was added to each well. The cells were then incubated at 37° C. for 1 h. The plate was read at 490 nm with a plate reader to determine the viability. In detachment assays, detached and attached cells were harvested separately and counted in a hemocytometer. The percentage of detachment was calculated by dividing the number of detached cells by the total number of cells. Apoptosis assays: After treatment, attached and detached cells were collected, counted and prepared for terminal uridine deoxynucleotidyl transferase (TUNEL) assay by utilizing an APO-BRDU kit (BD Pharmingen, San Diego, Calif.) according to the manufacturer's instructions. Stained cells were analyzed with a fluorescence-activated cell sorting-Calibur flow cytometer (BD Biosciences). […] Apoptotic cells were also analyzed by Hoechst staining. […]

MCF7 breast cancer cells = test: Cell viability (MTT), MCF7; type: cell-based; conditions: Homo sapiens; MCF7, 72 hours; read-out: IC50 of INT2-31, cell viability
Experimental: as §1, §2

[2] = test system: insulin receptor, VEGFR-1, AKT-1, EGFR, VEGFR-2, c-MET, PDGFRa, p70S6K, Src and PI3Kinase; test: Kinase profiler screening, other protein kinases; type: biochemical; conditions: 1 μM compound
Experimental: Kinase Profiler Screening: Kinase specificity screening was performed with Invitrogen's SelectScreen® Kinase Profiling Services http://www.invitrogen.com/site/us/en/home/Products-and-Services/Services/Discoverv-Research/SelectScreen-Profiling-Service/SelectScreen-Kinase-Profiling-Service.html. The screening was performed with 1 μM compound, INT2-31, 10 μM ATP, and kinase substrates against ten recombinant kinases according to Z′-LYTET™ Kinase Assay. For PI3 kinase activity, 100 μM ATP, and kinase substrate were utilized with the Invitrogen Adapta® Universal Kinase Assay protocol. Tumor Growth in Nude Mice in vivo: Six week old athymic, female nude mice were purchased from Harlan Laboratory. The mice were maintained in the animal facility, and all experiments were performed in compliance with NIH animal-use guidelines and under an IACUC approved protocol. Melanoma cells were injected, 5×10^6 cells, subcutaneously. When the tumor size reached 100 mm^3, the INT2-31 was introduced by intraperitoneal injection at a dose of 15 mg/kg daily for 21 days. Tumor diameters were measured with calipers, and tumor volume in mm^3 was calculated using the formula [(width)^2×length]/2. At the end of experiment, tumor weight and volume were determined.

[3] = test system: Miapaca-2 orthotopic xenografts; test: Orthotopic pancreatic xenograft, Miapaca-2; type: in vivo, mice
Source text: For the orthotopic model of pancreatic cancer, the University of Florida IACUC approved the following protocol (IACUC Study #2000801506). The pancreatic cancer cell lines, Mia paca-2 and Panc-1 cells were stably transfected using luciferase-RFP (red fluorescent protein) reporter gene for in vivo imaging of the xenografts. Following expansion and sorting of RFP positive cells, cells were expanded in culture and 5×10^6 tumor cells were implanted into the pancreas of 20 mice. For intra-pancreatic implantation of cells, mice were anesthetized with Isoflurane using the ACS provided and maintained rodent anesthesia machine. Under sterille surgical conditions, via 1.0 cm incision of the skin, abdominal wall and peritonium, the spleen was retracted and cells were injected in […] into the tail of the pancreas using a 29-gauge needle. The abdominal wall and peritoneum was sutured using 5.0 absorbable surgical sutures and the skin was closed with medical glue (dermabond). Postoperative analgesia was 0.05 mg/kg of buprenorphine subcutaneously per 8-12 hours postoperatively.
Mice were hand restrained prior to intraperitoneal injections. Mice were euthanized 6 weeks after tumor innoculation and tumor and tissue collected. As described below, mice were imaged weekly with the IVIS lumina imager and tumor size was estimated by the bioluminescent signal. […]

Compound: CSc1ncnc2c1ccn2C1O[C@H](COP(=O)(O)O)[C@@H](O)[C@H]1O (stereo partly drawn) [INT2-31, 4-(Methylthio)-7-(5-O-phosphono-D-ribofuranosyl)-{7H-Pyrrolo[2,3-d]pyrimidine}]
- IC50 [1]: 16.9 µM
- IC50 (MCF7 breast cancer cells): 0.03 µM
- inhibition of any of the other protein kinases [2]: ≤ 22%
- growth of the orthotopic pancreatic xenografts ([3]; Miapaca2, daily intraperitoneal 50 mg/kg, 21 days): sufficiently reduced the growth
- side effects as measured by body weights and appearances of the animals ([3]; both orthotopic models): without any significant side effects
